In brackets after ≈: the same amount, converted by molar mass. A value given as a limit tells only on which side of the number the result lay.

The results in this text go back to ChEMBL document CHEMBL1143211, “Inhibitors of proteases and amide hydrolases that employ an alpha-ketoheterocycle as a key enabling functionality” (Bioorg Med Chem, 2008).

In one test the target is Coagulation factor X (Homo sapiens, UniProt P00742). The test is described as follows: Inhibition of human factor 10a.
A further test concerns the target Coagulation factor XI (Homo sapiens, UniProt P03951).
The target of the next test is Prothrombin (Homo sapiens, UniProt P00734). Description: Inhibition of human alpha-thrombin.
A further test concerns Mus musculus. The test is described as follows: Analgesic activity in iv dosed mouse. The format is functional.
Another test has as its system Trypanosoma cruzi. The test is described as follows: microbe, parasite or virus in culture. As to conditions: read-out: ED50.
In test [1] the test system is Trypanosoma brucei rhodesiense. The test is described as follows: microbe, parasite or virus in culture. As to conditions: read-out: ED50.
For a further test, the target named is Beta-lactamase (Enterobacter cloacae, UniProt P05364). The test is described as follows: Inhibition of Enterobacter cloacae beta lactamase.
In the next test the test system is Osteoclast. Description: Inhibition of bovine bone resorption in rabbit osteoclasts. As to conditions: Oryctolagus cuniculus. It counts as functional, cell-based.
A short description of test [2]: Inhibition of post-glutamyl peptide hydrolase-like activity of human 20S proteasome.
The next test deals with PC-3. The test is described as follows: Growth inhibition of human PC3 cells. It counts as functional, cell-based.
The nature of test [3]: Inhibition of trypsin-like activity of human 20S proteasome.
A further test addresses Proline iminopeptidase (Serratia marcescens, UniProt O32449). Description: Inhibition of Serratia marcescens prolyl aminopeptidase.
Test [4] can be described thus: Selectivity for Porphyromonas gingivalis arginine gingipain over trypsin.
Test [5] can be described thus: Selectivity for Porphyromonas gingivalis arginine gingipain over cathepsin B.
Test [6] can be described thus: Inhibition of Porphyromonas gingivalis arginine gingipain.
The target of test [7] is Bifunctional purine biosynthesis protein ATIC (Homo sapiens, UniProt P31939). The test is described as follows: Inhibition of human aminoimidazole carboxamide transformylase.
The nature of test [8]: Inhibition of Escherichia coli glycinamide ribonucleotide transformylase.
In test [9] the target is T1, Trifunctional purine biosynthetic protein adenosine-3 (Homo sapiens, UniProt P22102).
T1 sequence (P22102 whole entry): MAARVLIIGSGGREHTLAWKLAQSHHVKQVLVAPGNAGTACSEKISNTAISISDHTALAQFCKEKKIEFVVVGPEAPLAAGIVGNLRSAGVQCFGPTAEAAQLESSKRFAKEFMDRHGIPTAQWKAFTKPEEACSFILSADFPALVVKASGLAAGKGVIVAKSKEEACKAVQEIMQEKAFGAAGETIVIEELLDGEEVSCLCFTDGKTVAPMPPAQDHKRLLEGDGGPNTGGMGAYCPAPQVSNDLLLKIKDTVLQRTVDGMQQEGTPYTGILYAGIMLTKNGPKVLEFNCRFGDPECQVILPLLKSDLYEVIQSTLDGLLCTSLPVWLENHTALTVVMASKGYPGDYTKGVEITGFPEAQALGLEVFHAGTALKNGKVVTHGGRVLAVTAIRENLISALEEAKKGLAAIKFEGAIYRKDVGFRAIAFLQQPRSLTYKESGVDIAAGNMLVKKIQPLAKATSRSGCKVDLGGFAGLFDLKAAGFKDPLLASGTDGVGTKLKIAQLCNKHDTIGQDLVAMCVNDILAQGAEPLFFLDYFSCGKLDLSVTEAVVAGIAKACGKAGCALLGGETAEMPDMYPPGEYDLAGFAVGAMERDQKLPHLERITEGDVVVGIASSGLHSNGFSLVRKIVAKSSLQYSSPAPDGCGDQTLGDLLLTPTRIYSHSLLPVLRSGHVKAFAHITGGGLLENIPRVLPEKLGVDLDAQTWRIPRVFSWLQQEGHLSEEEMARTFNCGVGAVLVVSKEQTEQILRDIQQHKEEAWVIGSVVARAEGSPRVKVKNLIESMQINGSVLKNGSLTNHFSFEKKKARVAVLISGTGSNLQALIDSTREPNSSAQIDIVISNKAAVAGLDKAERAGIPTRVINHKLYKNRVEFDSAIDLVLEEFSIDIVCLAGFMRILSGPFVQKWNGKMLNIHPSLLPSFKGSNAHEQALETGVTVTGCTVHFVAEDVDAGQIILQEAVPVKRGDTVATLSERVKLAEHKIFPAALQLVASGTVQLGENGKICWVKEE
Description: Inhibition of human glycinamide ribonucleotide transformylase.

Sequence of Proline iminopeptidase (O32449 whole entry): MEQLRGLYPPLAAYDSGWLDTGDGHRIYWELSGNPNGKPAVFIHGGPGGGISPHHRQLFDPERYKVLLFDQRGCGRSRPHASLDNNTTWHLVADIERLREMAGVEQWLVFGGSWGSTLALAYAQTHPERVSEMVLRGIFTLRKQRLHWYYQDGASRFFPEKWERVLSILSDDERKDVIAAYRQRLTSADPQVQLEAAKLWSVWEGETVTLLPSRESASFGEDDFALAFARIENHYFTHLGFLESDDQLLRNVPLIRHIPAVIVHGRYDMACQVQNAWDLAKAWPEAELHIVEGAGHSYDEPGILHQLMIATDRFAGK
Sequence of Coagulation factor X (P00742 41-179 limits assumed): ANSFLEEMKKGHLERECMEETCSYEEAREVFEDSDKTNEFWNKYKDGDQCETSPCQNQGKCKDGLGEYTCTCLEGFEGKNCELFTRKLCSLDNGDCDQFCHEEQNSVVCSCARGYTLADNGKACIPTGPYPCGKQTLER
Sequence of Coagulation factor X (P00742 235-488 limits assumed): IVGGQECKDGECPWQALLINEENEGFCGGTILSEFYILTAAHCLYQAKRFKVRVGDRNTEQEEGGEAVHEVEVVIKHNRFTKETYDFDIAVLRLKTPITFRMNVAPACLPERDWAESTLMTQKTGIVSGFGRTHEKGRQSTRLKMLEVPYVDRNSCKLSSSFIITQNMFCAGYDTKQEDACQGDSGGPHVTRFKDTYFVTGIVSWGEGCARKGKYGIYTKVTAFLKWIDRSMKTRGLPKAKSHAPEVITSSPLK
Sequence of Bifunctional purine biosynthesis protein ATIC (P31939 whole entry): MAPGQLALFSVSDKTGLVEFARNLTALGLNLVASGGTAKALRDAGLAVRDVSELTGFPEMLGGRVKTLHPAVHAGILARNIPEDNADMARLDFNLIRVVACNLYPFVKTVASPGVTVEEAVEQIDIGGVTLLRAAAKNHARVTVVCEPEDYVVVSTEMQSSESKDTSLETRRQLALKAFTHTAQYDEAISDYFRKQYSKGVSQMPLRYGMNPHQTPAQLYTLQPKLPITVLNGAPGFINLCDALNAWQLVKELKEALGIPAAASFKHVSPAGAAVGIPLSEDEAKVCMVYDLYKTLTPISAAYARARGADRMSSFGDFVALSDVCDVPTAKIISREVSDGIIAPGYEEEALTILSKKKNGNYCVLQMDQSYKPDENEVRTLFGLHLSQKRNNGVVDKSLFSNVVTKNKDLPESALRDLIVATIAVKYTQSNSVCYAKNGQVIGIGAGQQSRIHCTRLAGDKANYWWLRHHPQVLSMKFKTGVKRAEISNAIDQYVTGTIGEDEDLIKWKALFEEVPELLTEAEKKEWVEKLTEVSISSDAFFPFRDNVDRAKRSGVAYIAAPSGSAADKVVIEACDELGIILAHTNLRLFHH
Sequence of Coagulation factor XI (P03951 19-387 limits assumed): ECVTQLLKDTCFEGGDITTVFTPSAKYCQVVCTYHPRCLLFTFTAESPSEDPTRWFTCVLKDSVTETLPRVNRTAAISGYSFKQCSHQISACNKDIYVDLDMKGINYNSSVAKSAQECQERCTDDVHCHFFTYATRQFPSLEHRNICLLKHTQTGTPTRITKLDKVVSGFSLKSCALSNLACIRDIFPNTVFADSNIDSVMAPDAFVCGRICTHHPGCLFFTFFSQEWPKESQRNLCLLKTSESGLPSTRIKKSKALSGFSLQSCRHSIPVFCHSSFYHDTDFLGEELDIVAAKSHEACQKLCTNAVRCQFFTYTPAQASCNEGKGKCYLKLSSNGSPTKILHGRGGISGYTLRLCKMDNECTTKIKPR
Sequence of Coagulation factor XI (P03951 388-625 limits assumed): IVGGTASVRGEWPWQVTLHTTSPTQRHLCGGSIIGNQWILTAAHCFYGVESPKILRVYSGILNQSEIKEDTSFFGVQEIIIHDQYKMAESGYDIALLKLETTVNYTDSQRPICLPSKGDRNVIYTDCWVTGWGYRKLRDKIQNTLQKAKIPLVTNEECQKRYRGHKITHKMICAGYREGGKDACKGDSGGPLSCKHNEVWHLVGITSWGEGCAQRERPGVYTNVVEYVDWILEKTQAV
Sequence of Beta-lactamase (P05364 whole entry): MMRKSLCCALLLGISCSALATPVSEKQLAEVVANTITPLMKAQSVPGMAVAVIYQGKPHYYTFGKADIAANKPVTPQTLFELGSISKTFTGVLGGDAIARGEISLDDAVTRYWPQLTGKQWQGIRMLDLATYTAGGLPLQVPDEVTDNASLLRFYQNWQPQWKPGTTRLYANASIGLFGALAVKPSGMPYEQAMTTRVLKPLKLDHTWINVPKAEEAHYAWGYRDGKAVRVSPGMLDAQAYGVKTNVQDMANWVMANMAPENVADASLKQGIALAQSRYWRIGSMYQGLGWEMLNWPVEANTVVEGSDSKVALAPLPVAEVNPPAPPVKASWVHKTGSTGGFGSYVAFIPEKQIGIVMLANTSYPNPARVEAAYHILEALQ

In the case of `CC(C)[C@H](NC(=O)[C@H](CC1CCCCC1)NC(=O)N[C@H](C)c1ccc(Br)cc1)C(=O)N[C@@H](CCCNC(=N)N)C(=O)c1nccs1`, the IC50 at Coagulation factor X was 2700 nM; on Coagulation factor XI it was 10 nM; against Prothrombin, 980 nM.
As for `O=C(CCCCCCc1ccccc1)c1ncc(-c2ccccn2)o1`, the ED50 with Mus musculus stood at 1.9 mg/kg.
For the molecule `O=C(c1cc(-c2ccccc2)on1)[C@@H]1CCCN1C(=O)[C@@H]1CCCN1C(=O)OCc1ccccc1`, the EC50 was 6700 µg/mL (≈ 14.1 mM) in the test with Trypanosoma cruzi and 2200 µg/mL (≈ 4.65 mM) in test [1].
Turning to `O=C(Cc1ccccc1)NCC(=O)c1nc(C(=O)O)cs1`, on Beta-lactamase, the affinity, expressed as Ki, was 110000 nM.
The molecule `CCC[C@H](NC(=O)C1(NC(=O)c2ccc(N(C)C)cc2)CCCCC1)C(=O)c1nnc(-c2ccco2)o1` had an IC50 in the test on Osteoclast of 130 nM.
Regarding `Cc1ccc(S(=O)(=O)N[C@@H](CC(=O)NCC(C)(C)C)C(=O)N[C@@H](C)C(=O)N[C@@H](CC(C)C)C(=O)c2nnc(-c3ccccc3)o2)cc1`, the Ki was greater than 900000 nM in test [2] and greater than 300000 nM in [3]. The molecule further came in with an IC50 in the test on PC-3 of 200 nM.
At Proline iminopeptidase, `CC(C)(C)c1nnc(C(=O)[C@@H]2CCCN2)o1` showed a Ki of 500 nM. This lies in the sub-micromolar range.
On to `NCCCC[C@H](NC(=O)C1CCCN(C(=O)CCc2ccccc2)C1)C(=O)c1nc2ccccc2s1` (stereo partly drawn), for which the Selectivity ratio in test [4] was 30; in test [5] it was 120000. In test [6], this molecule had a Ki of 0.9 nM.
For `Nc1nc(N)c(CCCCCC(=O)c2nc3ccccc3o2)c(=O)[nH]1`, the Ki in test [7] was greater than 100000 nM; in [8] it was 15000 nM; in [9], greater than 100000 nM.

The term IC50 denotes the concentration needed to halve the response being measured. High values mean lower potency, low ones higher potency. As a reminder, the ED50 is the dose at which the effect has come halfway, by size or by number of responders. A low value points to greater potency. In general, Ki refers to a dissociation constant, usually derived from enzyme kinetics or from competition with a known ligand. The low end stands for a stronger hold on the target, the high end for a looser hold on the target.
